Measurements as given in US20150094354A1, “METHOD FOR TREATING CELL PROLIFERATIVE DISORDER BY INHIBITING C1GALT1 EXPRESSION” (National Taiwan University, priority 2013, published 2015).

How the values were obtained:
Format in all cases: cell-based, human
[1] = tested on: HGF/MET signaling pathway; test: HGF-induced signaling by Western blotting
Protocol: Human liver cancer cell lines, Huh7, PLC5, Sk-Hep1, and HepG2, are purchased from Bioresource Collection and Research Center in the year 2008. HA22T, SNU387, and HCC36 cells are kindly provided by Prof. Shiou-Hwei Yeh (National Taiwan University) in the year 2010. All cell lines are authenticated by the provider based on morphology, antigen expression, growth, DNA profile, and cytogenetics. Cells are cultured in Dulbecco's Modified Eagle Medium (DMEM) containing 10% FBS in 5% CO2 at 37° C. To analyze growth factor-induced cell signaling, cells are starved in serum-free DMEM for 5 hours and then treated with 25 ng/mL of hepatocyte growth factor (HGF) or insulin-like growth factor (IGF) at 37° C. for 30 minutes.
Equal amounts of protein samples are mixed with 5× sample buffer and boiled for 5 minutes, separated on SDS-polyacrylamide gels, and then transferred to PVDF membrane. The membranes are blocked in 5% BSA for 1 hour at room temperature, and incubated with primary antibodies overnight at 4° C. Anti-phosphotyrosine (4G10) antibody (Millipore, Billerica, Mass.), antibodies against C1GALT1, GAPDH, IGF-IR, MET pY 1234/5, IGF-IR pY1135/1136, p-AKT, p-ERK1/2, and ERK1/2 antibody (BD Pharmingen, San Jose, Calif.) are used. The blots are then incubated with secondary antibody conjugated with horseradish peroxidase and immunoreacted bands are detected by ECL reagents and exposed on x-ray film.
FIGS. 13A-13B are autoradiograms illustrating the effects of C1GALT1 on the HGF-induced signaling and IGF-induced signaling in hepatocellular carcinoma cells in accordance with an embodiment of the present invention. The role of C1GALT1 in glycosylation and activation of MET in hepatocellular carcinoma cells was investigated. HA22T, PLC5, Sk-Hep1, and HCC36 cells were starved for 5 hours and then treated with (+)/without (−) HGF (25 ng/mL) or IGF (25 ng/mL) for 30 minutes. Cell lysates ([…]) were analyzed by Western blotting with various antibodies, as indicated. […] In contrast, overexpression of C1GALT1 enhanced HGF-induced activation of MET and increased p-AKT levels in Sk-Hep1 and HCC36 cells, as shown in FIG. 13B.

HA22T cells [2] = test: Cell-cycle analysis by propidium iodide flow cytometry; details: HA22T (not shown)
Protocol: (§1) Cells (4×10^4) are seeded in each well of 6-well plates with DMEM containing 10% FBS. Viable cells are analyzed by Trypan blue exclusion assay at 0, 24, 48, and 72 hours. Cell proliferation is evaluated by immunostaining with anti-Ki67 antibody (1:1000; Vector Laboratories). For cell-cycle analysis, 1×10^6 cells are stained with propidium iodide (Sigma) for 30 minutes. The percentages of cells in G1, S, and G2M phases are analyzed by flow cytometry (Becton Dickinson).
(§2) FIGS. 10A-10B are schematic diagrams illustrating the effects of C1GALT1 on cell proliferation of hepatocellular carcinoma cells in vitro in accordance with an embodiment of the present invention. Cells were immunofluorescently stained for Ki67 and Ki67-positive cells were counted under a microscope. Results are presented as means±SD from three independent experiments. *, P<0.05; **, P<0.01.

PLC5 cells [3] = test: as above; details: PLC5 (not shown)
Protocol: as §1, §2

HA22T cells [4] = test: Trypan blue exclusion cell viability assay; details: up to 72 hours
Protocol: as §1
(§3) FIGS. 9A-9B are schematic diagrams illustrating the effects of C1GALT1 on the cell viability of hepatocellular carcinoma cells in vitro in accordance with an embodiment of the present invention. Cell viability of HA22T, PLC5, Sk-Hep1, and HCC36 cells was analyzed by Trypan blue exclusion assays at different time points for 72 hours. The results were standardized by the cell number at 0 hour. Data are represented as means±SD from three independent experiments. *, P<0.05; **, P<0.01.

PLC5 cells [5] = test: Trypan blue exclusion cell viability assay; details: PLC5, up to 72 hours
Protocol: as §1, §3

[6] = tested on: O-glycans on glycoproteins; test: Western blotting with biotinylated VVA of glycoproteins in hepatocellular carcinoma cells
Protocol: Vicia villosa agglutinin (VVA)- and peanut agglutinin (PNA) lectin-conjugated agarose beads, fluorescein isothiocyanate (FITC)-, and biotinylated VVA were purchased from Vector Laboratories. Recombinant EGF, HGF, IGF-I, and protein deglycosylation kits were purchased from Sigma. Protein deglycosylation is carried out using an Enzymatic Protein Deglycosylation Kit (Sigma). Briefly, cell lysates are treated with neuraminidase or PNGase F at 37° C. for 1 hour. For lectin blotting, […] of cell lysate is separated by an 8% SDS-PAGE, transferred to polyvinylidene difluoride membrane (Millipore), and blotted with biotinylated VVA (1:10,000). For lectin pull-down assay, cell lysates (0.3 mg) are incubated with or without deglycosylation enzymes and then applied to VVA- or PNA-conjugated agarose beads at 4° C. for 16 hours. The pulled down proteins are analyzed by Western blotting.
HA22T and PLC5 cells express high levels of C1GALT1, while Sk-Hep1 and HCC36 cells express low levels of C1GALT1, as shown in FIG. 6B. […] Compared with pcDNA3.1 empty plasmid (mock), overexpression of C1GALT1 in Sk-Hep1 and HCC36 cells transfected with C1GALT1/pcDNA3.1 plasmid (C1GALT1) is shown in FIG. 7B Immunofluorescence microscopy further confirmed the knockdown and overexpression of C1GALT1 in hepatocellular carcinoma cells and its subcellular localization in the Golgi apparatus (not shown). […] Proteins with evident changes in VVA binding are indicated by arrows. p140 changes in all tested cell lines are indicated by red arrows.

For “C1GALT1 si-1: siRNA oligonucleotide against C1GALT1, presumably SEQ ID NO: 1, UUAGUAUACGUUCAGGUAAGGUAGG (chemistry not given here)”, the “HGF-induced phosphorylation of MET at Y1234/5” value (“HGF-induced phosphorylation” below) ([1]; HA22T, HGF 25 ng/mL 30 minutes) was “inhibited”, the “phosphorylation of AKT” value ([1]; HA22T, HGF 25 ng/mL 30 minutes) was “suppressed” and the “HGF-induced phosphorylation” value ([1]; PLC5, HGF 25 ng/mL 30 minutes) was “inhibited”. For the same substance, the “phosphorylation of AKT” value ([1]; PLC5, HGF 25 ng/mL 30 minutes) was “suppressed”, the cell cycle (HA22T cells [2]) was “G1-phase arrest” and the cell cycle (PLC5 cells [3]) was “G1-phase arrest”. For the same substance, the cell viability (HA22T cells [4]) was “significantly suppressed”, the cell viability (PLC5 cells [5]) was “significantly suppressed” and the “binding of VVA to glycoproteins” value ([6]; HA22T cells) was “enhanced”. The “binding of VVA to glycoproteins” value ([6]; PLC5 cells) was “enhanced”.
With “C1GALT1 si-2: siRNA oligonucleotide against C1GALT1, presumably SEQ ID NO: 2, UUAUGUUGGCUAGAAUCUGCAUUGA (chemistry not given here)” the “HGF-induced phosphorylation” value ([1]; HA22T, HGF 25 ng/mL 30 minutes) was “inhibited”, the “phosphorylation of AKT” value ([1]; HA22T, HGF 25 ng/mL 30 minutes) was “suppressed” and the “HGF-induced phosphorylation” value ([1]; PLC5, HGF 25 ng/mL 30 minutes) was “inhibited”. The “phosphorylation of AKT” value ([1]; PLC5, HGF 25 ng/mL 30 minutes) was “suppressed”, the cell cycle (HA22T cells [2]) was “G1-phase arrest” and the cell cycle (PLC5 cells [3]) was “G1-phase arrest”. The cell viability (HA22T cells [4]) was “significantly suppressed”, the cell viability (PLC5 cells [5]) was “significantly suppressed” and the “binding of VVA to glycoproteins” value ([6]; HA22T cells) was “enhanced”. The “binding of VVA to glycoproteins” value ([6]; PLC5 cells) was “enhanced”.
